Where two headings read alike, the source gives them in different places.
Experiments:
snHAS [1] = experiment: HA formation by HABP-HRP HA detection kit (TMB, OD450), Michaelis-Menten fit; format: biochemical, Candidatus Mycoplasma liparidae; settings: 15 mM MgCl2, 50 mM PBS, 5 mM DTT, 37 °C, 30 µM enzyme
snHAS [2] = experiment: as above; format: biochemical, Candidatus Mycoplasma liparidae; settings: 15 mM MgCl2, 50 mM PBS, 5 mM DTT, 37 °C, 30 µM enzyme, read-out: snHASE173D
Source text: HA formation by HABP-HRP HA detection kit (TMB, OD450), Michaelis-Menten fit on snHAS

| Structure (SMILES) | Km (snHAS [1]; 1 mM UDP-GlcNAc fixed) [µM] | Km (snHAS [2]; 1 mM UDP-GlcNAc fixed) [µM] | Km (snHAS [1]; 1 mM UDP-GlcA fixed) [µM] | Km (snHAS [2]; 1 mM UDP-GlcA fixed) [µM] |
| --- | --- | --- | --- | --- |
| O=C(O)[C@H]1O[C@H](OP(=O)(O)OP(=O)(O)OC[C@H]2O[C@@H](n3ccc(=O)[nH]c3=O)[C@H](O)[C@@H]2O)[C@H](O)[C@@H](O)[C@@H]1O [UDP-GlcA] | 39 ± 5 | 210 ± 20 |  |  |
| CC(=O)N[C@H]1[C@@H](OP(=O)(O)OP(=O)(O)OC[C@H]2O[C@@H](n3ccc(=O)[nH]c3=O)[C@H](O)[C@@H]2O)O[C@H](CO)[C@@H](O)[C@@H]1O [UDP-GlcNAc] |  |  | 258 ± 45 | 410 ± 70 |

— publication PMC12036578, “Expression and molecular characterization of an intriguing hyaluronan synthase (HAS) from the symbiont “Candidatus Mycoplasma liparidae” in snailfish” (PeerJ, 2025)
